Here are results for 10 molecules from US4051141A, “Thieno[3,2-c]pyridine derivatives” (Centre d'Etudes pour l'Industrie pharmaceutique, priority 1973, dated 1977).

The nature of one data set: in vivo. The settings on record: mouse, iv, read-out: LD50/24 hrs/kg body weight.
The next data set deals with ovalbumin-induced edema. Description: Ovalbumin-induced systemic edema method (anti-inflammatory action). The settings on record: rats, oral 100 mg (1 h before and with ovalbumin). In kind it is in vivo. Here is the method:
b. Ovalbumin-induced Systemic Edema Method Rats are administered a simultaneous intraperitoneal injection of 1 ml ovalbumin and 0.5 ml of a 1.[…]. aqueous Evans Blue solution. The animals of the treated lot are additionally administered orally 100 mg of the test derivative, one hour prior to ovalbumin administration and simultaneously with said ovalbumin administration. The intensity of the phenomenon thus induced is scored according to a scale from 1 to 5, according to the progress of the inflammatory syndrome. Thus are determined the mean intensity of the edema and the percent decrease of the edema reaction with respect to the control lot. Said percentage, for derivative No. 5, for example, is 62% after two hours and 70% after three hours.

In data set [1] the test system is carrageenin-induced edema. The data set can be described thus: Localised carrageenin-induced edema method (anti-inflammatory action). As to conditions: rats, oral 100 mg/kg (1 h before, with, 1 h and 2.5 h after). It counts as in vivo. Here is the method: a. Localised Carrageenin-induced Edema Method A 1% carrageenin solution (1 ml) is injected in the metatarsal flexor muscles of the right hind paw of rats at time O. The animals of the treated lots are additionally administered orally 100 mg/kg of the test derivative, respectively one hour prior to and then simultaneously with the phlogogenic agent, and then one hour and 2.5 hrs thereafter. The percent anti-inflammatory activity with respect to the reference lot, as a function of time, is determined by measurements effected with a Roch micrometer at times O, one hour, two hours, three hours and five hours after carrageenin administration.
(In general: In the carrageenan paw model, swelling and tenderness develop within hours.)

The subject of the next data set is blood plate aggregation. The data set can be described thus: Inhibitor action on blood plate aggregation induced by adenosine diphosphate (turbidimetric assay of serum from treated animals). The settings on record: rats, 100 mg/kg. It counts as in vivo. The source says:
2. Inhibitor Action on Blood Plate Aggregation
The normally cloudy blood plate rich serum of rats is made clear by addition of adenosine diphosphate which induces aggregation of the blood plates. […] Thus, the inhibitor action on blood plate aggregation of the test derivatives may be evaluated by means of a simple spectrophotometric turbidimetric assay.

The nature of data set [2]: Acute toxicity, LD50/24 hrs, intravenous, derivatives of formula (IV). As to conditions: mouse, in vivo, mice, read-out: LD50/24 hrs/kg body weight. The source says:
It concerned the acute toxicity, the subacute toxicity, the chronic toxicity, the tolerance and the teratology of said derivatives.

In the case of `COc1cc(CN2CCc3sccc3C2)cc(OC)c1OC` [derivative 3, 5-(3,4,5-trimethoxy-benzyl)-4,5,6,7-tetrahydrothieno[3,2-c]pyridine], in the data set “in vivo”, the LD50 at 24 h was found to be 60 mg/kg. `Cl.Clc1ccc(CN2CCc3sccc3C2)cc1` [derivative 5, 5-parachlorobenzyl-4,5,6,7-tetrahydro-thieno-[3,2-c]pyridine hydrochloride]: the “percent decrease of the edema reaction with respect to the control lot” value in the data set on ovalbumin-induced edema (after three hours) is given as 70%; with ovalbumin-induced edema (after two hours), 62%. Also, the “percent anti-inflammatory activity with respect to the reference lot” value in data set [1] (after five hours) is recorded as 55%; in data set [1] (after one hour), 45%; in data set [1] (after three hours), 52%; in data set [1] (after two hours) it was 51%. In addition, the “protection against blood plate aggregation” value in the data set on blood plate aggregation is recorded as “greater than 95%”. With `O=C(C[n+]1ccc2sccc2c1)c1ccccc1.[Br-]` [derivative No. 24, 5-phenacyl-thieno[3,2-c]pyridinium bromide], in data set [2], the LD50 at 24 h came to 19 mg/kg. As to `COc1ccccc1C(=O)C[n+]1ccc2sccc2c1` [derivative No. 25, 5-(O-Methoxy-Phenacyl)-Thieno[3,2-c]Pyridinium bromide], the LD50 at 24 h in data set [2] was 18 mg/kg. As to `O=C(C[n+]1ccc2sc(Cl)cc2c1)c1ccccc1.[Br-]` [derivative No. 26, 2-chloro-5-phenacyl-thieno[3,2-c]pyridinium bromide], the LD50 at 24 h in data set [2] came to 38 mg/kg. Take `O=C(C[n+]1ccc2sccc2c1)c1ccc(Cl)cc1.[Br-]` [derivative No. 27, N-parachloro-phenacyl-thieno[3,2-c]pyridinium bromide]: in data set [2], the LD50 at 24 h was determined as 17.5 mg/kg. On the same count and under the same terms, the figure for `O=C(C[n+]1ccc2sccc2c1)c1ccc(F)cc1.[Cl-]` [derivative No. 29, 5-para-fluoro-phenacyl-thieno[3,2-c]pyridinium chloride] is 16 mg/kg. The same measure, in the same setting: the figure for `O=C(C[n+]1ccc2sccc2c1)c1ccc(O)cc1.[Cl-]` [derivative No. 30, N-(para-hydroxy-phenacyl)-thieno[3,2-c]pyridinium chloride] is 25 mg/kg; for `COc1ccc(C(=O)C[n+]2ccc3sccc3c2)cc1.[Br-]` [derivative No. 31, N-(para-methoxy-phenacyl)-thieno[3,2-c]pyridinium bromide] it is 32 mg/kg. For `COc1cccc(C(=O)C[n+]2ccc3sccc3c2)c1.[Br-]` [derivative No. 32, N-(meta-methoxy-phenacyl)-thieno[3,2-c]pyridinium bromide], the LD50 at 24 h in data set [2] came to 16 mg/kg.
